TGI and GI50 data for 33 molecules are collected here from PubChem BioAssay (NCI).

Molecules are shown by their SMILES.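 Interpolation was linear, between the two tested concentrations surrounding the appropriate level; five concentrations were tested over 48 hours in 96-well plates. Here, GI50 denotes the concentration required for 50% inhibition of growth. TGI is the concentration that stops growth completely.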

Holding throughout (experiment): DTP human tumour cell line panel, 48 h
The test system of experiment [1] is HS 578T breast.
The subject of experiment [2] is MDA-N.
For experiment [3], the system named is XF 498 CNS.
Experiment [4] relates to LXFL 529 NSCLC.
Experiment [5] relates to DMS 114 small cell lung.
The subject of experiment [6] is KM20L2 colon.
For experiment [7], the system named is M19-MEL melanoma.
In experiment [8] the test system is DMS 273 small cell lung.

For the molecule `CC(C)C12CCC3(CCC4C(C)(C(=O)O)CCCC4(C)C3C1)C(CN)C2` (configuration not stated), the TGI (in general, the concentration at which net growth stops) in experiment [1] was > 100 µM; in experiment [2] it was 84 µM.
Consider `CC(=O)OC1CCC2(C)C(=CCC3C4CC(CN5CC5)C(=O)C4(C)CCC32)C1` (configuration not stated), for which, in experiment [1], the GI50 (usually the concentration at which growth is held to half of that of the control) is 20.4 µM and the TGI worked out at 65.8 µM.
The corresponding values for `Brc1ccc2c(c1)-c1ccccc1C1=NCCN12` are 2.8 µM and 12 µM.
As for `CN(C)c1ccc(/C=C2\Cc3ccccc3C2=O)cc1Br`, the TGI was 86.2 µM in experiment [3]; > 100 µM in experiment [4]; > 100 µM in experiment [5]; > 100 µM in experiment [6]; > 100 µM in experiment [7].
As for `CC1=C(C(=O)OC(C)(C)C)C(c2ccc([N+](=O)[O-])cc2)C(C(=O)OC(C)(C)C)=C(C)N1`, the figures for the total growth inhibition concentration (TGI) in experiment [1] and in experiment [2] were 43.4 µM and 48.6 µM, respectively.
For `C/C(=N\NC(=O)c1ccncc1)c1ccccc1O`, in experiment [1], the GI50 was 26.7 µM and the TGI was > 100 µM.
The corresponding values for `CCC(=C(c1ccc(OCCN(CC)CC)cc1)c1ccc(OCCN(CC)CC)cc1)c1ccc(Cl)cc1` are 0.668 µM and 1.57 µM.
Regarding `Cc1c(-c2ccc(N3CCc4cccc(C(=O)Nc5nc6ccccc6s5)c4C3)nc2C(=O)O)cnn1CC12CC3CC(CC(C3)C1)C2`, in experiment [1], the GI50 was 3.77 µM and the TGI amounted to 38.4 µM.
`O=C(/C=C/N1CCN(c2cccc(Cl)c2)CC1)c1ccc(Cl)cc1`: in experiment [1], the GI50 was 26.9 µM and the TGI is 69.6 µM.
For `COc1cc(COC(=O)NC(Cc2cccs2)C(=O)O)c([N+](=O)[O-])cc1OC` (configuration not stated), the TGI in experiment [1] and in experiment [2] was > 100 µM each time.
Consider `Cc1cc2c(SCc3ccccc3Cl)nc(N)nc2nc1C`, for which the TGI in experiment [1] and in experiment [2] was > 100 µM each time.
`COC(=O)C1=C(C)C(=O)C2(CCCCCC2C(=O)OC)C1` (configuration not stated): the TGI in experiment [8], in experiment [4], in experiment [5], in experiment [6] and in experiment [7] was > 100 µM each time.
Take `O=c1cccccc1[O-].O=c1cccccc1[O-].O=c1cccccc1[O-].[Dy+3]`: in experiment [8], the GI50 was 9.28 µM and the TGI is > 100 µM. Moreover, in experiment [6], the GI50 is 18.4 µM and the TGI was > 100 µM.
`O=C(Nc1ccccc1)Oc1ccccc1C1CCCCC1`: the total growth inhibition concentration (TGI) in experiment [3] was 35 µM; in experiment [8], 42.6 µM; in experiment [4], > 100 µM; in experiment [5] it was 32.8 µM; in experiment [7], 37.5 µM.
With `CC(=O)OCC1OC(OC(C)=O)C(NC#N)C(OC(C)=O)C1OC(C)=O` (configuration not stated), the TGI in experiment [8], in experiment [4], in experiment [5] and in experiment [7] was > 100 µM throughout.
For `N#Cc1c(N)nc(N2CCOCC2)c(C#N)c1-c1ccc(Cl)cc1Cl`, in experiment [1], the GI50 is 15.8 µM and the TGI is 45.9 µM.
The corresponding values for `O=C(NCc1cccnc1)c1ccc([N+](=O)[O-])o1` are 2.52 µM and > 9.5 µM.
In the case of `CCOC(=O)C1C(=O)C(=O)N2CCc3c([nH]c4ccccc34)C12` (configuration not stated), the TGI in experiment [4], in experiment [5], in experiment [6] and in experiment [7] was > 100 µM each time.
Take `Cc1nc(-c2cccnc2)sc1C(=O)/C=C/c1ccc(Cl)cc1Cl`: the TGI in experiment [8], in experiment [5], in experiment [6] and in experiment [7] was > 100 µM each time.
For `Nc1ccc(N)c2c1C(=O)c1cccc([N+](=O)[O-])c1C2=O`, in experiment [1], the GI50 is 2.47 µM and the TGI came out at 26.2 µM.
Take `O=C(COC(=O)[C@H](C[Se][Se]C[C@H](NC(=O)c1ccc(Br)cc1F)C(=O)OCC(=O)c1ccc(F)cc1)NC(=O)c1ccc(Br)cc1F)c1ccc(F)cc1`: in experiment [1], the GI50 was 0.298 µM and the TGI came to 1.31 µM.
The corresponding values for `CCn1c(SC)nnc1-c1cc2c([nH]c3ccccc32)c(-c2cccc(O)c2)n1` are 1.97 µM and 9.76 µM.
Turning to `CN1C/C(=C\c2ccco2)c2nc(N)nc(-c3ccco3)c2C1`, the TGI in experiment [3] is 90.2 µM; in experiment [8], > 100 µM; in experiment [4] it was > 100 µM; in experiment [5], > 100 µM; in experiment [6], > 100 µM; in experiment [7] it was > 100 µM.
As to `CCCNc1ncnc2c1cnn2C`, the TGI in experiment [3], in experiment [8], in experiment [5], in experiment [6] and in experiment [7] was > 100 µM each time.
On to `CN(C)C(=O)c1cc2cnc(Nc3ccc(N4CCNCC4)cn3)nc2n1C1CCCC1`, for which, in experiment [1], the GI50 was 13.8 µM and the TGI was 53.5 µM.
Take `Cc1[nH]n(C(=O)c2ccc(Cl)cc2)c(=O)c1/C=C1\C(O)=CC(=O)c2ccccc21`: the TGI in experiment [3], in experiment [4], in experiment [5], in experiment [6] and in experiment [7] was > 100 µM each time.
With `COc1ccc(S(=O)(=O)NCCCNc2nccc(-c3c(-c4ccc(F)cc4)nc4sccn34)n2)cc1`, in experiment [1], the GI50 was 3.58 µM and the TGI is > 100 µM.
Regarding `CN1CCN(Cc2ccc(NC(=O)c3cncc(C#Cc4cnc5cccnn45)c3)cc2C(F)(F)F)CC1`, in experiment [1], the GI50 is 0.922 µM and the TGI was found to be 3.26 µM.
Regarding `O=C(Nc1cccc(C(F)(F)F)c1)Nc1cc(S(=O)(=O)NC2CC2)ccc1-c1ccsc1`, in experiment [1], the GI50 was 8.96 µM and the TGI stood at 35.8 µM.
As for `COc1cc2c(cc1OCCCN1CCN(CCCn3c4ccccc4c4ccccc43)CC1)N=C[C@@H]1CCCN1C2=O`, the TGI in experiment [1] worked out at 0.254 µM.
On to `COc1cc([C@H]2c3cc(O)c(OC)cc3C[C@]3(O)[C@@H]2CO[C@@H]3O)ccc1O`, for which the TGI in experiment [1] and in experiment [2] was > 100 µM throughout.
With `O=C(/C=C/c1ccc(OCC(=O)N2CCN(c3ccccc3)CC2)cc1)c1ccccc1`, the TGI in experiment [4] was > 94.2 µM; in experiment [6] it was > 66 µM; in experiment [7] it was > 100 µM.
Take `Cc1cc(C2(c3cc(C)c(O)c4ncccc34)OC(=O)c3ccccc32)c2cccnc2c1O`: the TGI in experiment [2] was > 100 µM.
